Measurements: patent publication US12668591B2, “1,2,4-oxadiazole derivatives as histone deacetylase 6 inhibitors” (Oryzon Genomics, S.A., priority 2017, dated 2026)

Target: T1, HDAC6 (Homo sapiens, UniProt Q9UBN7)
T1 sequence (Q9UBN7 1-1215): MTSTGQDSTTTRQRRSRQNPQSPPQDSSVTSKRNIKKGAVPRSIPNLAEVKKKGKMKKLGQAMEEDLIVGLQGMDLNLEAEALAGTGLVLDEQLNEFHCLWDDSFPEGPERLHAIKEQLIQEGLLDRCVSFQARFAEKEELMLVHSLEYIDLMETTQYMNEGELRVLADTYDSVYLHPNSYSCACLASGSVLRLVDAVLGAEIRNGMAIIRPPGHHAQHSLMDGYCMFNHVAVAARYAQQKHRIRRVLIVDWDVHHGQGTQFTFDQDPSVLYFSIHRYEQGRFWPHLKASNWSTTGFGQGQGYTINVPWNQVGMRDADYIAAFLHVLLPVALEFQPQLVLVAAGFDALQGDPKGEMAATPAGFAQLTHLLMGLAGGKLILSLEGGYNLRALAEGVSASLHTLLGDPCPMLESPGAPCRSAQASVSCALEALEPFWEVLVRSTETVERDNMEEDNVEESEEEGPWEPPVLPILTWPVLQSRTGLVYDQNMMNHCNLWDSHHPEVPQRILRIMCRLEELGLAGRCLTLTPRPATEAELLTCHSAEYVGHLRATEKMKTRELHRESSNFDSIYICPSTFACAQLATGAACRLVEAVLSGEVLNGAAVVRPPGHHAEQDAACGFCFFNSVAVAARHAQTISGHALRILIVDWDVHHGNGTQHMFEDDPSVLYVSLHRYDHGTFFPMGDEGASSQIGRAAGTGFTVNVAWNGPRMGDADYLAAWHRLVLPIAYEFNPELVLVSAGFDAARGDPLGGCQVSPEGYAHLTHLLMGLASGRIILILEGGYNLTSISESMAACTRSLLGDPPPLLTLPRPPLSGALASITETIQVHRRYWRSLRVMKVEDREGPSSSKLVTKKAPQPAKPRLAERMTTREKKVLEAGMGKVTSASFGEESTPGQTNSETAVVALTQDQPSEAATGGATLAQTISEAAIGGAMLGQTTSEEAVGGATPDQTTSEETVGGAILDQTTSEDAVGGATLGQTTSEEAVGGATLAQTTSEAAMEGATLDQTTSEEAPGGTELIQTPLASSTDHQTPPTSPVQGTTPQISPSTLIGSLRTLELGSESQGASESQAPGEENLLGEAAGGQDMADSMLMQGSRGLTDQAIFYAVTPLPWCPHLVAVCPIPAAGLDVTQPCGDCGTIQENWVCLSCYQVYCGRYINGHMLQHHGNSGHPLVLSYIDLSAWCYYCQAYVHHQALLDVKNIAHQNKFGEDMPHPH
Experiment: In vitro cell-based assay: acetylation levels of Alpha-Tubulin by Western Blot in MOLP8 cells
Design: endogenous in cells; host or cells: MOLP8
Details: 18 h, acetyl-alpha-tubulin relative band intensity, ACY-1215 1 μM = 100%
Protocol: In Vitro Cell-Based Assay
In order to determine the cellular activity of HDAC6 upon treatment with HDAC6 inhibitors, acetylation levels of Alpha-Tubulin (a HDAC6-specific substrate) were measured by Western Blot. For this, MOLP8 cells were seeded in 6-well plates at a cell density of 500.000 cells/well and treated with the selected compounds at 5 and 1 μM for 18 h at 37° C. and 5% CO2 in a humidified tissue culture incubator. Consecutively, cell pellets were collected and whole protein extracts prepared using RIPA buffer (SIGMA) supplemented with 1× protease inhibitors (cOmplete mini, Roche). Protein concentration was determined with Bradford's reagent (Bio-Rad) as per manufacturer's instructions, and 7 μg of total protein were loaded into pre-cast 10% NuPAGE Novex gels (Life Technologies). Gels were run in […] (Life Technologies) and proteins were transferred using the iBlot 2 Dry Blotting System (Life Technologies). Blots were subsequently rinsed in distilled water and stained with Ponceau S solution (SIGMA). Blots were then washed in distilled water to remove Ponceau excess and scanned with the Epson Perfection V600 Photo professional Scanner. After this, blots were de-stained and blocked in 5% milk/PBS-Tween 0.1% for 1 h at room temperature followed by incubation with anti-Acetyl-alpha Tubulin (SIGMA cat. #T7451, 1:10.000 dilution) and anti-Beta-actin (SIGMA, cat. #A5316, 1:2.000 dilution) primary antibodies in 5% milk/PBS-T 0.1%, overnight at 4° C. on a shaking platform. After incubation, blots were washed 3 times for 5 minutes each in PBS-Tween 0.5% and incubated with anti-mouse HRP-conjugated secondary antibody (Jackson Immuno Research, cat. #115-035-068) at 1:8.000 in 5% milk/PBS-Tween 0.1%, 1 h at room temperature on a shaking platform. After 3 washes of 5 minutes each with PBS-Tween 0.5% and 1 wash in PBS 1×, blots were developed with ECL Plus (GE Healthcare) and the chemiluminescent reaction imaged with the G:Box Chemi XRQ (Syngene) imaging system. WB and Ponceau images were analysed with ImageJ software, WB band intensities normalized by either total protein or Beta-actin content and made relative to ACY-1215 1 μM (equivalent to 100%). ACY-1215 is a HDAC6 inhibitor, and is also known as ricolinostat, with chemical name 2-(diphenylamino)-N-[7-(hydroxyamino)-7-oxoheptyl]-5-pyrimidinecarboxamide. Percentage of band intensities was classified as follows: […]

| Compound | Cellular activity @1 uM | Cellular activity @5 uM |
| --- | --- | --- |
| CCCn1ccc2cc(-c3cc(-c4noc(C(F)(F)F)n4)ccn3)ncc21 [Example 1a, 3-(2-(1-Propyl-1H-pyrrolo[2,3-c]pyridin-5-yl)pyridin-4-yl)-5-(trifluoromethyl)-1,2,4-oxadiazole] | − (<50) | ++ (150-300) |
| COCCn1nc(-c2cc(-c3noc(C(F)(F)F)n3)ccn2)c2ncccc21 [Example 1aaa, 3-(2-(1-(2-Methoxyethyl)-1H-pyrazolo[4,3-b]pyridin-3-yl)pyridin-4-yl)-5-(trifluoromethyl)-1,2,4-oxadiazole] | + (50-150) | + (50-150) |
| CCn1nc(-c2cc(-c3noc(C(F)(F)F)n3)ccn2)c2ncccc21 [Example 1aab, 3-(2-(1-Ethyl-1H-pyrazolo[4,3-b]pyridin-3-yl)pyridin-4-yl)-5-(trifiuoromethyl)-1,2,4-oxadiazole] | + (50-150) | + (50-150) |
| Cn1ccnc1CCn1nc(-c2cc(-c3noc(C(F)(F)F)n3)ccn2)c2ncccc21 [Example 1aac] | + (50-150) | ++ (150-300) |
| Cn1cc(Cn2ccc3cnc(-c4cc(-c5noc(C(F)(F)F)n5)ccn4)cc32)cn1 [Example 1aad, 3-(2-(1-((1-Methyl-1H-pyrazol-4-yl)methyl)-1H-pyrrolo[3,2-c]pyridin-6-yl)pyridin-4-yl)-5-(trifluoromethyl)-1,2,4-oxadiazole] | + (50-150) | ++ (150-300) |
| O=C(CCc1ccccc1)Nc1ccnc(-c2cc(-c3noc(C(F)(F)F)n3)ccn2)c1 [Example 1ad, 3-Phenyl-N-(4′-(5-(trifluoromethyl)-1,2,4-oxadiazol-3-yl)-[2,2′-bipyridin]-4-yl)propanamide] | + (50-150) | + (50-150) |
| O=C(NC1CCCNC1)c1ccnc(-c2cc(-c3noc(C(F)(F)F)n3)ccn2)c1 (stereo not drawn) [Example 1af, N-(Piperidin-3-yl)-4′-(5-(trifluoromethyl)-1,2,4-oxadiazol-3-yl)-[2,2′-bipyridine]-4-carboxamide] | + (50-150) | + (50-150) |
| FC(F)(F)c1nc(-c2ccnc(-c3ccc(OCCCn4cccn4)cn3)c2)no1 [Example 1ag, 3-(5′-(3-(1H-Pyrazol-1-yl)propoxy)-[2,2′-bipyridin]-4-yl)-5-(trifluoromethyl)-1,2,4-oxadiazole] | − (<50) | + (50-150) |
| CCCn1cc(COC)c2cc(-c3cc(-c4noc(C(F)(F)F)n4)ccn3)ncc21 [Example 1ai, 3-(2-(3-(Methoxymethyl)-1-propyl-1H-pyrrolo[2,3-c]pyridin-5-yl)pyridin-4-yl)-5-(trifluoromethyl)-1,2,4-oxadiazole] | − (<50) | + (50-150) |
| CCCCn1cc(CO)c2cc(-c3cc(-c4noc(C(F)(F)F)n4)ccn3)ncc21 [Example 1aj, (1-butyl-5-(4-(5-(trifluoromethyl)-1,2,4-oxadiazol-3-yl)pyridin-2-yl)-1H-pyrrolo[2,3-c]pyridin-3-yl)methanol] | + (50-150) | + (50-150) |
| CN1CCC(CNC(=O)c2ccnc(-c3cc(-c4noc(C(F)(F)F)n4)ccn3)c2)CC1 [Example 1am, N-((1-Methylpiperidin-4-yl)methyl)-4′-(5-(trifluoromethyl)-1,2,4-oxadiazol-3-yl)-[2,2′-bipyridine]-4-carboxamide] | + (50-150) | + (50-150) |
| CN1CCC(CNC(=O)c2ccc(-c3cc(-c4noc(C(F)(F)F)n4)ccn3)nc2)CC1 [Example 1an, N-((1-Methylpiperidin-4-yl)methyl)-4′-(5-(trifluoromethyl)-1,2,4-oxadiazol-3-yl)-[2,2′-bipyridine]-5-carboxamide] | + (50-150) | + (50-150) |
| FC(F)(F)CN1CCC(n2ccc3cnc(-c4cc(-c5noc(C(F)(F)F)n5)ccn4)cc32)CC1 [Example 1ao, 3-(2-(1-(1-(2,2,2-Trifluoroethyl)piperidin-4-yl)-1H-pyrrolo[3,2-c]pyridin-6-yl)pyridin-4-yl)-5-(trifluoromethyl)-1,2,4-oxadiazole] | + (50-150) | ++ (150-300) |
| COCCn1c(C(=O)N(C)C)cc2cc(-c3cc(-c4noc(C(F)(F)F)n4)ccn3)ncc21 [Example 1ar, 1-(2-Methoxyethyl)-N,N-dimethyl-5-(4-(5-(trifluoromethyl)-1,2,4-oxadiazol-3-yi)pyridin-2-yl)-1H-pyrrolo[2,3-c]pyridine-2-carboxamide] | + (50-150) | + (50-150) |
| COCCn1cc(-c2cn[nH]c2)c2cc(-c3cc(-c4noc(C(F)(F)F)n4)ccn3)ncc21 [Example 1as, 3-(2-(1-(2-Methoxyethyl)-3-(1H-pyrazol-4-yl)-1H-pyrrolo[2,3-c]pyridin-5-yl)pyridin-4-yl)-5-(trifluoromethyl)-1,2,4-oxadiazole] | + (50-150) | + (50-150) |
| Cn1ccc2cc(-c3cc(-c4noc(C(F)(F)F)n4)ccn3)ncc21 [Example 1at, 3-(2-(1-Methyl-1H-pyrrolo[2,3-c]pyridin-5-yl)pyridin-4-yl)-5-(trifluoromethyl)-1,2,4-oxadiazole] | − (<50) | + (50-150) |
| FC(F)(F)c1nc(-c2ccnc(-c3cc4c(ccn4Cc4cccnc4)cn3)c2)no1 [Example 1av, 3-(2-(1-(Pyridin-3-ylmethyl)-1H-pyrrolo[3,2-c]pyridin-6-yl)pyridin-4-yl)-5-(trifluoromethyl)-1,2,4-oxadiazole] | + (50-150) | ++ (150-300) |
| CN(CCO)CCCOc1ccc(-c2cc(-c3noc(C(F)(F)F)n3)ccn2)nc1 [Example 1ax, 2-(Methyl(3-((4′-(5-(trifluoromethyl)-1,2,4-oxadiazol-3-yl)-[2,2′-bipyridin]-5-yl)oxy)propyl)amino)ethan-1-ol] | + (50-150) | + (50-150) |
